Measurements taken from ChEMBL document CHEMBL1128645, “Synthesis and antiviral activity of phosphonate derivatives of enantiomeric dihydro-2H-pyranyl nucleosides” (Bioorg Med Chem Lett, 1995).
Calls of active or inactive are those of the source.

Key:
[1] = Half life at pH 3; assay type: ADME; details: buffer
Human alphaherpesvirus 3 = assay: Antiviral activity against Varicella-Zoster virus (VZV); no activity; assay type: functional, organism-based
[2] = tested on: Human immunodeficiency virus 2; assay: Antiviral activity against human immunodeficiency virus(HIV-2); no activity; assay type: functional, organism-based
[3] = tested on: Human immunodeficiency virus 1; assay: Antiviral activity against human immunodeficiency virus(HIV-1); no activity; assay type: functional, organism-based
Cytomegalovirus = assay: Antiviral activity against cytomegalovirus (CMV); no activity; assay type: functional, organism-based
Human alphaherpesvirus 1 = assay: Antiviral activity against herpes simplex virus (HSV-1); no activity; assay type: functional, organism-based
Human alphaherpesvirus 2 = assay: Antiviral activity against herpes simplex virus (HSV-2); no activity; assay type: functional, organism-based

Nc1nc(O)c2ncn([C@H]3C=C[C@@H](OCP(=O)(O)O)CO3)c2n1
5 h: half-life [1]

Nc1nc(O)c2ncn([C@@H]3C=C[C@H](OCP(=O)(O)O)OC3)c2n1
inactive: Activity (Human alphaherpesvirus 3) | Activity [2] | Activity [3] | Activity (Cytomegalovirus) | Activity (Human alphaherpesvirus 1) | Activity (Human alphaherpesvirus 2)

Nc1nc(O)c2ncn([C@H]3C=C[C@@H](OCP(=O)(O)O)OC3)c2n1
inactive: Activity (Human alphaherpesvirus 3) | Activity [2] | Activity [3] | Activity (Cytomegalovirus) | Activity (Human alphaherpesvirus 1) | Activity (Human alphaherpesvirus 2)
